In ChEMBL document CHEMBL1201862, “PubChem BioAssay data set” (2004):
Activity calls are given as the source filed them. For most assays here, no stated cut-off is given here; in the data, actives have a measured EC50 and inactives only a lower limit.

Tests used:
[1] = system: BJ; test: cells; assay type: functional, cell-based; conditions: Homo sapiens
[2] = system: BJ; test: BJ-TERT-LT-ST fibroblast viability loss – cell-based, RAS-independent, luminescence, dose response (AID 1935); assay type: functional; conditions: Homo sapiens;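 further: BJ fibroblasts immortalized with TERT plus LT and ST oncogenes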
[3] = system: BJ; test: BJ-TERT fibroblast viability loss – cell-based, RAS-independent, luminescence, dose response (AID 1933); assay type: functional; conditions: Homo sapiens
[4] = DRD fibroblast viability loss – cell-based, non-viral oncogenic, luminescence, dose response (AID 1934); assay type: functional; conditions: Homo sapiens
[5] = biological target: Cytochrome P450 3A4 (Homo sapiens, UniProt P08684);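 further: CYP3A4 tested as one member of a cytochrome P450 panel screen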
[6] = biological target: T1, Cytochrome P450 1A2 (Homo sapiens, UniProt P05177);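 further: PubChem cytochrome P450 panel assay, CYP1A2 panel member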
T1 sequence (P05177 whole entry): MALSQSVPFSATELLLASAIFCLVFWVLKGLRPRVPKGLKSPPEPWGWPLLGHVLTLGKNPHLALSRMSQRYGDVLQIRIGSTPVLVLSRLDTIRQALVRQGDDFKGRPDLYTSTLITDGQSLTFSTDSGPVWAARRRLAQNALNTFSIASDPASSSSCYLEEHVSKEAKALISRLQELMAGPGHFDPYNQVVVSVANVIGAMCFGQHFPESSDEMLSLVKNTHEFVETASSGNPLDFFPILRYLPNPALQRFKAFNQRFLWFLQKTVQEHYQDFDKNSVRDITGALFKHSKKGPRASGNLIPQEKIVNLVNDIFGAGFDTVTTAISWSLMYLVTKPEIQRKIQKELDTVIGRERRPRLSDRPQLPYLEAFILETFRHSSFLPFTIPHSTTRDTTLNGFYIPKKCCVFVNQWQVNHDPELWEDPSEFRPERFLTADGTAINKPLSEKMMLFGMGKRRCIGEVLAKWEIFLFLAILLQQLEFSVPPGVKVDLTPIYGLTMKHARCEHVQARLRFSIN

[7] = viability of uninfected HEp-2 cells – cell-based, HTS, cytotoxicity control for RSV inhibitor project, dose response (AID 2410); assay type: functional; conditions: human respiratory syncytial virus
[8] = biological target: Cytochrome P450 2D6 (Homo sapiens, UniProt P10635);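 further: CYP2D6 member of a cytochrome P450 panel assay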
[9] = biological target: T2, Calpain-2 catalytic subunit (Sus scrofa, UniProt P43367); test: m-calpain protease blockers, concentration series – biochemical, fluorogenic peptide substrate, dose response (AID 1420); assay type: functional
T2 sequence (P43367 whole entry): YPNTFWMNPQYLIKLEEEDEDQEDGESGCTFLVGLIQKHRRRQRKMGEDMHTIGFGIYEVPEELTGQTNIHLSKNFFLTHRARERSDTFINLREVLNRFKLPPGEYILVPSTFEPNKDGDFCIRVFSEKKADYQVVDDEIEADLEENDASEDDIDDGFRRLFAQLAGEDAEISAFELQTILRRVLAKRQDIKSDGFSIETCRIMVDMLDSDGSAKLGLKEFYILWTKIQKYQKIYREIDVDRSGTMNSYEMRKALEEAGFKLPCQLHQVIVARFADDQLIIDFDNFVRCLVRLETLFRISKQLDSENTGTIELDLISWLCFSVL

[10] = alpha-synuclein stem-loop luciferase translation blockers – H4 neuroglioma cells, luminescence, confirmation (AID 1988); assay type: functional, cell-based
[11] = luciferase reporter signal suppression in cells – H4 neuroglioma cells, luminescence, dose response (AID 1990); assay type: functional, cell-based
[12] = Luminescence Cell-Based Dose Response HTS to Identify Inhibitors of 5'UTR Stem-Loop Driven Prion Protein mRNA Translation in H4 Neuroglioblastoma Cells. [Related pubchem assays: 1827 (Project Summary), 1813 (Primary HTS)]; assay type: functional
[13] = biological target: T3, Protein RecA (Mycobacterium tuberculosis, UniProt P9WHJ3); test: Fluorescence Cell-Free Homogeneous Dose Retest to Identify Inhibitors of RecA-Intein Splicing Activity. [Related pubchem assays (depositor defined):AID2097, AID2223, AID489010, AID492950]; assay type: functional
T3 sequence (P9WHJ3 whole entry): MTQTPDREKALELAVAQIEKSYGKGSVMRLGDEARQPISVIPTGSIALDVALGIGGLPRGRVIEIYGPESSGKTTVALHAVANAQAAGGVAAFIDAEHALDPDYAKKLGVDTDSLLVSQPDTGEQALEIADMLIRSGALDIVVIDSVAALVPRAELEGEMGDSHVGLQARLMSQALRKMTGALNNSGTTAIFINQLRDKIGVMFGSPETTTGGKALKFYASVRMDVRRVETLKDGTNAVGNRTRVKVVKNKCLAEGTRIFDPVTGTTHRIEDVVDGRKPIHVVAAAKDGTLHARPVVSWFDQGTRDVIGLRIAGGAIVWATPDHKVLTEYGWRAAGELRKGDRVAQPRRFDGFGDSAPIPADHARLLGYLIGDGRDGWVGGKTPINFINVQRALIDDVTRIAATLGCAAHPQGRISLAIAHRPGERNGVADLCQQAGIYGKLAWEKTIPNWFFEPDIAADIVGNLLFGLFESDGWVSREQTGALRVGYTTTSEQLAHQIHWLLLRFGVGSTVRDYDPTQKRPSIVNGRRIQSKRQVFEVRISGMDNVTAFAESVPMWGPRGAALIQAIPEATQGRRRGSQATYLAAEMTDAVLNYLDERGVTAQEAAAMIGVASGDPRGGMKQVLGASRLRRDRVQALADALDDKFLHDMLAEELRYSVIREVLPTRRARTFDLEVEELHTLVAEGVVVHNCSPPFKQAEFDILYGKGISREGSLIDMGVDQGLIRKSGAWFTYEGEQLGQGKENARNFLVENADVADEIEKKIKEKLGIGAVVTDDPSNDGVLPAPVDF

[14] = biological target: T4, Replicative DNA helicase DnaB (Mycobacterium tuberculosis, UniProt P9WMR3); test: DnaB intein splicing inhibitors, dose response, biochemical, cell-free fluorescence (AID 449749); assay type: functional
T4 sequence (P9WMR3 whole entry): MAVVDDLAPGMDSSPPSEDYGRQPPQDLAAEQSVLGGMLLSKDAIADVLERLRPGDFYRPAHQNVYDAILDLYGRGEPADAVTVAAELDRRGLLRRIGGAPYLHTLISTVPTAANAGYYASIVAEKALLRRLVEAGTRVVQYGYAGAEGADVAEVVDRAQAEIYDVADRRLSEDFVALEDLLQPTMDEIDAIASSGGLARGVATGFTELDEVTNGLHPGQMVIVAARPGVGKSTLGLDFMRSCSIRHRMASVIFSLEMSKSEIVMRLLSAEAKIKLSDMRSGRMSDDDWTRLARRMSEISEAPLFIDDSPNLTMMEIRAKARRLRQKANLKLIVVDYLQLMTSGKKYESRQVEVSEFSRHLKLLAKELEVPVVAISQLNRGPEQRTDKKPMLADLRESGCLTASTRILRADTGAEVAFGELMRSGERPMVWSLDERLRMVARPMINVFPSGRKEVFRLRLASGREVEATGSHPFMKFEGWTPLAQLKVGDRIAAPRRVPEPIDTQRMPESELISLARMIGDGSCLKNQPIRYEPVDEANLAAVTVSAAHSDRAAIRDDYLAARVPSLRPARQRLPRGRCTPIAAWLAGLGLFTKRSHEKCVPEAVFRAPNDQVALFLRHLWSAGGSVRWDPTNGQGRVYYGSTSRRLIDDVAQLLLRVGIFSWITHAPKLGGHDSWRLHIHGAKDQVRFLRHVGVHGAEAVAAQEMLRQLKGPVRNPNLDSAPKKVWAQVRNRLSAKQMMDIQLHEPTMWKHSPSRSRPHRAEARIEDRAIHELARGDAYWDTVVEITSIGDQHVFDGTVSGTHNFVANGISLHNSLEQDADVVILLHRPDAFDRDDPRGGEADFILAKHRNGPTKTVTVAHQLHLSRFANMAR

[15] = biological target: T5, Heat shock factor protein 1 (Mus musculus, UniProt P38532); test: decrease of HSF1-responsive luciferase luminescence – cell-based, NIH3T3, dose retest, confirmation (AID 2382); assay type: functional;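 further: NIH3T3 fibroblasts with HSF1-driven luciferase reporter stressed by proteasome inhibitor MG132; luminescence from HSF1-driven luciferase expression after 8 hours of MG132 stress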
T5 sequence (P38532 whole entry): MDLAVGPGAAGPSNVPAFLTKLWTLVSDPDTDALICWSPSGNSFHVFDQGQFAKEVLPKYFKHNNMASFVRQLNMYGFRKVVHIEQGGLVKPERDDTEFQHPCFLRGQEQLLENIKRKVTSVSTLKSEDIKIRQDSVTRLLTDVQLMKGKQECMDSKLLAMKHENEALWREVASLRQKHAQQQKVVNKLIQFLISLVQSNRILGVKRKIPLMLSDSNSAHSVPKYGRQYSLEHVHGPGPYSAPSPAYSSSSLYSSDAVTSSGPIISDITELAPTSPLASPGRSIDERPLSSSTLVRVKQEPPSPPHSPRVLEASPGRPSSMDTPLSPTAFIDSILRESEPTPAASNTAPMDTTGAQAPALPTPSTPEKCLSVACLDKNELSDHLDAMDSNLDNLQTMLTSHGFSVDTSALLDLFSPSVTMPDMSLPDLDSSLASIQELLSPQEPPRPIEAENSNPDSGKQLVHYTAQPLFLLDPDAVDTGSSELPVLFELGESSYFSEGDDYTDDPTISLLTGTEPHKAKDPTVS

[16] = biological target: Luciferin 4-monooxygenase (Photinus pyralis, UniProt P08659); test: inhibition of purified Photinus pyralis luciferase – biochemical, luminescence, dose response (AID 1891)
[17] = Luminescence Cell-Based Dose Confirmation HTS to Identify Inhibitors of Platelet Dense Granule Release. [Related pubchem assays: 1663 (Primary HTS), 1678 (Summary of Project)]; assay type: functional

Cytochrome P450 2D6, sequence (P10635 whole entry): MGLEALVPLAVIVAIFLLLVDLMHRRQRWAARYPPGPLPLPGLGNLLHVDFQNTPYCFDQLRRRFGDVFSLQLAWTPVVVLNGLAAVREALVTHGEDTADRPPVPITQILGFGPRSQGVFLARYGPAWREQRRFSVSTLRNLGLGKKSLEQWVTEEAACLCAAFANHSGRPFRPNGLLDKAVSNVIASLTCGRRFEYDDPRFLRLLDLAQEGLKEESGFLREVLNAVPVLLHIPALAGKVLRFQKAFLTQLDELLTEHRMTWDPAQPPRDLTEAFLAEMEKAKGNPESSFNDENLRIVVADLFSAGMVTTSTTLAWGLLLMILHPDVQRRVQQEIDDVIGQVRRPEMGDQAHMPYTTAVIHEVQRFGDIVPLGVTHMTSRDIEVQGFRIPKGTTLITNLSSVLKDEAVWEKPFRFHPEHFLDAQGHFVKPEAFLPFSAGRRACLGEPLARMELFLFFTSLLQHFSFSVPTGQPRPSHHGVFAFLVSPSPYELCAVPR
Cytochrome P450 3A4, sequence (P08684 whole entry): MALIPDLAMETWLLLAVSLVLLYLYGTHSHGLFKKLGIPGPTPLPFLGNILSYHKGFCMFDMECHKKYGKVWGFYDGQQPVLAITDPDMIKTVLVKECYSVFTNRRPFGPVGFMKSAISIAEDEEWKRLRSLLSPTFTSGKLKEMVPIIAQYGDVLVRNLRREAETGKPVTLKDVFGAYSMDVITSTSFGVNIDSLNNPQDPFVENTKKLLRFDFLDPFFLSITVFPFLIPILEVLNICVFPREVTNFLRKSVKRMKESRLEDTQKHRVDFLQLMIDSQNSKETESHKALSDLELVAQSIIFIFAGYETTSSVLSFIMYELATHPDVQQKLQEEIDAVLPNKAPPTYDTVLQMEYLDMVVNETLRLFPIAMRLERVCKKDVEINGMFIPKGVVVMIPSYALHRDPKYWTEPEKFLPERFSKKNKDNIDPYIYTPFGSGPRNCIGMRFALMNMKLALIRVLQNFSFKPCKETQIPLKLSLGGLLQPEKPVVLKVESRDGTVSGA
Luciferin 4-monooxygenase, sequence (P08659 whole entry): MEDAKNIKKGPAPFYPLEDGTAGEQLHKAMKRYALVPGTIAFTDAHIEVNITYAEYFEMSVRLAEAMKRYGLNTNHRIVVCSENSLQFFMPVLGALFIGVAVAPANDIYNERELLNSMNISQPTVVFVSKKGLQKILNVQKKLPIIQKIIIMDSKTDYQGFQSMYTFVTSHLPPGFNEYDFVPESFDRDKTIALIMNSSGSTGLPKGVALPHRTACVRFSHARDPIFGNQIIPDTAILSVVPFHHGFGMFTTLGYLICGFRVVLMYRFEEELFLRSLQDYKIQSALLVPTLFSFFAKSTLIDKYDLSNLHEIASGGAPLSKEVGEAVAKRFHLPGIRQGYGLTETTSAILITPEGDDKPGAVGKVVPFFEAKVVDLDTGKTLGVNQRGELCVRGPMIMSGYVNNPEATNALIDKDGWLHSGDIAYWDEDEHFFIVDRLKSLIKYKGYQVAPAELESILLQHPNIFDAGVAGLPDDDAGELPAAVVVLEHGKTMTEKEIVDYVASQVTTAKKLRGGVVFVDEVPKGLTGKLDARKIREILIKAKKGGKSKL

CCn1cnc2c([N+](=O)[O-])c(NS(=O)(=O)c3ccc(C)cc3)ccc21
EC50 [1]: > 150 µM (not active)
EC50 [2]: > 150 µM (inconclusive)
EC50 [3]: > 150 µM (not active)
EC50 [4]: > 150 µM (not active)

O=C(NC12CC3CC(CC(C3)C1)C2)c1ccc(COc2ccc(Cl)cc2[N+](=O)[O-])o1
AC50 [5]: 15.8 µM (inconclusive)
AC50 [6]: 14.1 µM (inconclusive)
CC50 [7]: 32.4 µM (active)
AC50 [8]: 28.2 µM (inconclusive)

CCC(C)C(=O)Nc1ccc([N+](=O)[O-])cc1OC (configuration not stated)
IC50 [9]: 16.1 µM (not active)

CCCN1CCC(=NNc2ccc(S(=O)(=O)N3CCOCC3)cc2[N+](=O)[O-])CC1
EC50 [10]: 6.57 µM (active)
EC50 [11]: 11.1 µM (inconclusive)
EC50 [12]: 13.8 µM (active)

Cc1ccc(SC[C@H](Cc2ccccc2)N2CCN(CCc3ccccc3)CCC2=O)cc1
IC50 [9]: 5.01 µM (not active)

COc1ccc(/C=C2\SC(=S)N(CC(=O)OCC(=O)Nc3cc(Cl)cc(Cl)c3)C2=O)cc1
EC50 [1]: > 150 µM (not active)
EC50 [2]: > 150 µM (not active)
EC50 [3]: > 150 µM (not active)
EC50 [4]: > 150 µM (not active)

CCOC(=O)c1ccc(NC(=O)Nc2ncccc2C)cc1
IC50 [9]: 12.4 µM (not active)

CCC1CCCCN1C(=O)c1ccc(OC2CCN(C(=O)C3CC3)CC2)cc1 (configuration not stated)
IC50 [9]: > 50 µM (not active)

CCOC(=O)c1c(NC(=O)CNC2CCCCC2)sc(C)c1C
IC50 [9]: 6.04 µM (not active)

CC(C)Cn1c(N)c(C(=O)COC(=O)c2ccccc2F)c(=O)n(C)c1=O
IC50 [9]: > 50 µM (not active)

COc1ccc(C2CC(C(F)(F)F)n3ncc(C(=O)Nc4cccc(O)c4)c3N2)cc1OC (configuration not stated)
EC50 [10]: 54.7 µM (active)
EC50 [11]: 20.3 µM (active)
EC50 [12]: 23.2 µM (active)

O=C(Nc1cnn(Cc2ccc(F)cc2)c1)c1cc2nc(-c3ccco3)cc(C(F)(F)F)n2n1
IC50 [9]: 0.777 µM (not active)

O=S(=O)(c1ccc2c(c1)OCCO2)N1CCc2ccccc21
IC50 [9]: > 50 µM (not active)

CCCCNc1nc(NC)nc(Cl)c1SC
EC50 [10]: > 120 µM (not active)
EC50 [11]: > 120 µM (not active)
EC50 [12]: > 120 µM (not active)

CCOC(=O)c1c(C)nc2sc3c(=O)n(-c4ccc(OC)cc4)cnc3c2c1-c1ccc(OC)cc1
EC50 [10]: 21.1 µM (active)
EC50 [11]: 12.9 µM (active)
EC50 [12]: > 120 µM (not active)

COc1cc(OC)cc(C(=O)NCCN2CCOCC2)c1
IC50 [9]: 48.3 µM (not active)

O=C(O)COc1cccc(/C=C2/SC(=S)N(Cc3ccccc3)C2=O)c1
EC50 [1]: > 150 µM (not active)
EC50 [2]: > 150 µM (inconclusive)
EC50 [13]: 10.1 µM (active)
EC50 [3]: > 150 µM (not active)
EC50 [4]: > 150 µM (not active)
AC50 [14]: 9.8 µM (active)

CCOC(=O)CN1N=C(/C=C/c2ccc(C(C)C)cc2)CCC1=O
IC50 [9]: 9.2 µM (active)

COc1cc(O)oc1/C=N/c1ccc(C(=O)O)cc1
EC50 [1]: 9.97 µM (active)
EC50 [15]: > 195 µM (not active)
EC50 [16]: 10.7 µM (active)
EC50 [2]: > 150 µM (inconclusive)
EC50 [17]: 2.74 µM (active)
EC50 [3]: 13.7 µM (active)
EC50 [4]: 10.7 µM (active)

C/C(CC(=O)Nc1ccccn1)=N\NC(=O)c1ccccc1O
EC50 [10]: 12.7 µM (active)
EC50 [11]: 14 µM (active)
EC50 [12]: 10.9 µM (active)

CN(C)c1ccc2nc3ccc(N(C)C)cc3[s+]c2c1 [METHYLENE BLUE ANHYDROUS]
EC50 [10]: 5.46 µM (inconclusive)
EC50 [12]: 11.1 µM (inconclusive)
